Data published in ChEMBL document CHEMBL3763020, “Tetramethylpyrazine improves the recovery of spinal cord injury via Akt/Nrf2/HO-1 pathway” (2016).
The source made the active and inactive calls. The calls are words filed in the database; no cut-off is given here.

Columns and labels:
Rattus norvegicus [1] = test: Neuroprotective activity in Sprague-Dawley rat model of spinal cord injury assessed as accumulation at G0/G1 phase at 200 mg/kg, ip by TUNEL staining-based flow cytometric analysis in presence of Akt inhibitor LY294002 (reference value: 34.1 %); type: functional
Rattus norvegicus [2] = test: Neuroprotective activity in Sprague-Dawley rat model of spinal cord injury assessed as increase in glutathione level at 200 mg/kg, ip by reduced glutathione assay; type: functional, organism-based
Rattus norvegicus [3] = test: Neuroprotective activity in Sprague-Dawley rat model of spinal cord injury assessed as decrease in TNF-alpha levels in spinal cord tissue at 200 mg/kg, ip by ELISA in presence of Akt inhibitor LY294002; type: functional, organism-based
Rattus norvegicus [4] = test: Neuroprotective activity in Sprague-Dawley rat model of spinal cord injury assessed as decrease in TNF-alpha levels in spinal cord tissue at 200 mg/kg, ip by ELISA in presence of 25 umol/kg of HO-1 inhibitor ZnPP; type: functional, organism-based
Rattus norvegicus [5] = test: Neuroprotective activity in Sprague-Dawley rat model of spinal cord injury assessed as increase in HO-1 mRNA expression at 200 mg/kg, ip by real time PCR method in presence of 25 umol/kg of HO-1 inhibitor ZnPP; type: functional, organism-based
Rattus norvegicus [6] = test: Neuroprotective activity in Sprague-Dawley rat model of spinal cord injury assessed as decrease in thiobarbituric acid reactive substances level at 200 mg/kg, ip by malondialdehyde assay in presence of 25 umol/kg of HO-1 inhibitor ZnPP; type: functional, organism-based
Rattus norvegicus [7] = test: Neuroprotective activity in Sprague-Dawley rat model of spinal cord injury assessed as decrease in Evans blue leakage in spinal cord tissue at 200 mg/kg, ip after 24 hrs in presence of Akt inhibitor LY294002; type: functional, organism-based
Rattus norvegicus [8] = test: Neuroprotective activity in Sprague-Dawley rat model of spinal cord injury assessed as decrease in Evans blue leakage in spinal cord tissue at 200 mg/kg, ip after 48 hrs; type: functional, organism-based
Rattus norvegicus [9] = test: Neuroprotective activity in Sprague-Dawley rat model of spinal cord injury assessed as increase in Akt phosphorylation at 200 mg/kg, ip by Western blot analysis; type: functional, organism-based
Rattus norvegicus [10] = test: Neuroprotective activity in Sprague-Dawley rat model of spinal cord injury assessed as decrease in activated caspase-3 level at 200 mg/kg, ip in presence of Akt inhibitor LY294002; type: functional, organism-based
Rattus norvegicus [11] = test: Neuroprotective activity in Sprague-Dawley rat model of spinal cord injury assessed as decrease in IL1-beta levels in spinal cord tissue at 200 mg/kg, ip by ELISA in presence of 25 umol/kg of HO-1 inhibitor ZnPP; type: functional, organism-based
Rattus norvegicus [12] = test: Neuroprotective activity in Sprague-Dawley rat model of spinal cord injury assessed as decrease in thiobarbituric acid reactive substances level at 200 mg/kg, ip by malondialdehyde assay; type: functional, organism-based
Rattus norvegicus [13] = test: Neuroprotective activity in Sprague-Dawley rat model of spinal cord injury assessed as increase in superoxide dismutase activity at 200 mg/kg, ip in presence of 25 umol/kg of HO-1 inhibitor ZnPP; type: functional, organism-based
Rattus norvegicus [14] = test: Neuroprotective activity in Sprague-Dawley rat model of spinal cord injury assessed as increase in HO-1 mRNA expression at 200 mg/kg, ip by real time PCR method; type: functional, organism-based
Rattus norvegicus [15] = test: Neuroprotective activity in Sprague-Dawley rat model of spinal cord injury assessed as decrease in activated caspase-9 level at 200 mg/kg, ip; type: functional, organism-based
Rattus norvegicus [16] = test: Neuroprotective activity in Sprague-Dawley rat model of spinal cord injury assessed as accumulation at G0/G1 phase at 200 mg/kg, ip by TUNEL staining-based flow cytometric analysis (reference value: 34.1 %); type: functional
Rattus norvegicus [17] = test: Neuroprotective activity in Sprague-Dawley rat model of spinal cord injury assessed as decrease in Evans blue leakage in spinal cord tissue at 200 mg/kg, ip after 48 hrs in presence of Akt inhibitor LY294002; type: functional, organism-based
Rattus norvegicus [18] = test: Neuroprotective activity in Sprague-Dawley rat model of spinal cord injury assessed as increase in Nrf2 mRNA expression at 200 mg/kg, ip by real time PCR method in presence of Akt inhibitor LY294002; type: functional, organism-based
Rattus norvegicus [19] = test: Induction of Nrf2 binding to HO-1 promoter in Sprague-Dawley rat model of spinal cord injury at 200 mg/kg, ip by chromatin immunoprecipitation assay; type: functional, organism-based
Rattus norvegicus [20] = test: Neuroprotective activity in Sprague-Dawley rat model of spinal cord injury assessed as decrease in activated caspase-3 level at 200 mg/kg, ip; type: functional, organism-based
Rattus norvegicus [21] = test: Neuroprotective activity in Sprague-Dawley rat model of spinal cord injury assessed as increase in Nrf2 mRNA expression at 200 mg/kg, ip by real time PCR method in presence of 25 umol/kg of HO-1 inhibitor ZnPP; type: functional, organism-based
Rattus norvegicus [22] = test: Neuroprotective activity in Sprague-Dawley rat model of spinal cord injury assessed as decrease in IL-18 levels in spinal cord tissue at 200 mg/kg, ip by ELISA in presence of 25 umol/kg of HO-1 inhibitor ZnPP; type: functional, organism-based
Rattus norvegicus [23] = test: Neuroprotective activity in Sprague-Dawley rat model of spinal cord injury assessed as decrease in IL-18 levels in spinal cord tissue at 200 mg/kg, ip by ELISA; type: functional, organism-based
Rattus norvegicus [24] = test: Neuroprotective activity in Sprague-Dawley rat model of spinal cord injury assessed as locomotor function recovery at 200 mg/kg, ip measured during 3 to 28 days in presence of Akt inhibitor LY294002; type: functional, organism-based
Rattus norvegicus [25] = test: Neuroprotective activity in Sprague-Dawley rat model of spinal cord injury assessed as accumulation at G0/G1 phase at 200 mg/kg, ip by TUNEL staining-based flow cytometric analysis in presence of 25 umol/kg of HO-1 inhibitor ZnPP (reference value: 34.1 %); type: functional
Rattus norvegicus [26] = test: Neuroprotective activity in Sprague-Dawley rat model of spinal cord injury assessed as locomotor function recovery at 200 mg/kg, ip measured during 3 to 28 days; type: functional, organism-based
Rattus norvegicus [27] = test: Neuroprotective activity in Sprague-Dawley rat model of spinal cord injury assessed as increase in Akt phosphorylation at 200 mg/kg, ip by western blot analysis in presence of Akt inhibitor LY294002; type: functional, organism-based
Rattus norvegicus [28] = test: Neuroprotective activity in Sprague-Dawley rat model of spinal cord injury assessed as increase in glutathione level at 200 mg/kg, ip by reduced glutathione assay in presence of Akt inhibitor LY294002; type: functional, organism-based
Rattus norvegicus [29] = test: Neuroprotective activity in Sprague-Dawley rat model of spinal cord injury assessed as decrease in Evans blue leakage in spinal cord tissue at 200 mg/kg, ip after 24 hrs in presence of 25 umol/kg of HO-1 inhibitor ZnPP; type: functional, organism-based
Rattus norvegicus [30] = test: Induction of Nrf2 binding to HO-1 promoter in Sprague-Dawley rat model of spinal cord injury at 200 mg/kg, ip by chromatin immunoprecipitation assay in presence of 25 umol/kg of HO-1 inhibitor ZnPP; type: functional, organism-based
Rattus norvegicus [31] = test: Neuroprotective activity in Sprague-Dawley rat model of spinal cord injury assessed as decrease in TNF-alpha levels in spinal cord tissue at 200 mg/kg, ip by ELISA; type: functional, organism-based
Rattus norvegicus [32] = test: Neuroprotective activity in Sprague-Dawley rat model of spinal cord injury assessed as decrease in Evans blue leakage in spinal cord tissue at 200 mg/kg, ip after 24 hrs; type: functional, organism-based
Rattus norvegicus [33] = test: Neuroprotective activity in Sprague-Dawley rat model of spinal cord injury assessed as increase in glutathione level at 200 mg/kg, ip by reduced glutathione assay in presence of 25 umol/kg of HO-1 inhibitor ZnPP; type: functional, organism-based
Rattus norvegicus [34] = test: Neuroprotective activity in Sprague-Dawley rat model of spinal cord injury assessed as decrease in IL1-beta levels in spinal cord tissue at 200 mg/kg, ip by ELISA; type: functional, organism-based
Rattus norvegicus [35] = test: Neuroprotective activity in Sprague-Dawley rat model of spinal cord injury assessed as increase in superoxide dismutase activity at 200 mg/kg, ip in presence of Akt inhibitor LY294002; type: functional, organism-based
Rattus norvegicus [36] = test: Neuroprotective activity in Sprague-Dawley rat model of spinal cord injury assessed as decrease in IL-18 levels in spinal cord tissue at 200 mg/kg, ip by ELISA in presence of Akt inhibitor LY294002; type: functional, organism-based
Rattus norvegicus [37] = test: Neuroprotective activity in Sprague-Dawley rat model of spinal cord injury assessed as decrease in Evans blue leakage in spinal cord tissue at 200 mg/kg, ip after 48 hrs in presence of 25 umol/kg of HO-1 inhibitor ZnPP; type: functional, organism-based
Rattus norvegicus [38] = test: Induction of Nrf2 binding to HO-1 promoter in Sprague-Dawley rat model of spinal cord injury at 200 mg/kg, ip by chromatin immunoprecipitation assay in presence of Akt inhibitor LY294002; type: functional, organism-based
Rattus norvegicus [39] = test: Neuroprotective activity in Sprague-Dawley rat model of spinal cord injury assessed as locomotor function recovery at 200 mg/kg, ip measured during 3 to 28 days in presence of 25 umol/kg of HO-1 inhibitor ZnPP; type: functional, organism-based
Rattus norvegicus [40] = test: Neuroprotective activity in Sprague-Dawley rat model of spinal cord injury assessed as decrease in activated caspase-9 level at 200 mg/kg, ip in presence of Akt inhibitor LY294002; type: functional, organism-based
Rattus norvegicus [41] = test: Neuroprotective activity in Sprague-Dawley rat model of spinal cord injury assessed as increase in Akt phosphorylation at 200 mg/kg, ip by western blot analysis in presence of 25 umol/kg of HO-1 inhibitor ZnPP; type: functional, organism-based
Rattus norvegicus [42] = test: Neuroprotective activity in Sprague-Dawley rat model of spinal cord injury assessed as increase in HO-1 mRNA expression at 200 mg/kg, ip by real time PCR method in presence of Akt inhibitor LY294002; type: functional, organism-based
Rattus norvegicus [43] = test: Neuroprotective activity in Sprague-Dawley rat model of spinal cord injury assessed as decrease in activated caspase-3 level at 200 mg/kg, ip in presence of 25 umol/kg of HO-1 inhibitor ZnPP; type: functional, organism-based
Rattus norvegicus [44] = test: Neuroprotective activity in Sprague-Dawley rat model of spinal cord injury assessed as decrease in IL1-beta levels in spinal cord tissue at 200 mg/kg, ip by ELISA in presence of Akt inhibitor LY294002; type: functional, organism-based
Rattus norvegicus [45] = test: Neuroprotective activity in Sprague-Dawley rat model of spinal cord injury assessed as decrease in thiobarbituric acid reactive substances level at 200 mg/kg, ip by malondialdehyde assay in presence of Akt inhibitor LY294002; type: functional, organism-based
Rattus norvegicus [46] = test: Neuroprotective activity in Sprague-Dawley rat model of spinal cord injury assessed as decrease in activated caspase-9 level at 200 mg/kg, ip in presence of 25 umol/kg of HO-1 inhibitor ZnPP; type: functional, organism-based
Rattus norvegicus [47] = test: Neuroprotective activity in Sprague-Dawley rat model of spinal cord injury assessed as increase in superoxide dismutase activity at 200 mg/kg, ip; type: functional, organism-based
Rattus norvegicus [48] = test: Neuroprotective activity in Sprague-Dawley rat model of spinal cord injury assessed as increase in Nrf2 mRNA expression at 200 mg/kg, ip by real time PCR method; type: functional, organism-based

## Cc1nc(C)c(C)nc1C [LIGUSTRAZINE]
Rattus norvegicus [1]
  Activity: 16.2%
Rattus norvegicus [2]
  Activity: Active
Rattus norvegicus [3]
  Activity: inactive
Rattus norvegicus [4]
  Activity: inactive
Rattus norvegicus [5]
  Activity: inactive
Rattus norvegicus [6]
  Activity: inactive
Rattus norvegicus [7]
  Activity: inactive
Rattus norvegicus [8]
  Activity: Active
Rattus norvegicus [9]
  Activity: Active
Rattus norvegicus [10]
  Activity: inactive
Rattus norvegicus [11]
  Activity: inactive
Rattus norvegicus [12]
  Activity: Active
Rattus norvegicus [13]
  Activity: inactive
Rattus norvegicus [14]
  Activity: Active
Rattus norvegicus [15]
  Activity: Active
Rattus norvegicus [16]
  Activity: 8%
Rattus norvegicus [17]
  Activity: inactive
Rattus norvegicus [18]
  Activity: inactive
Rattus norvegicus [19]
  Activity: Active
Rattus norvegicus [20]
  Activity: Active
Rattus norvegicus [21]
  Activity: Active
Rattus norvegicus [22]
  Activity: inactive
Rattus norvegicus [23]
  Activity: Active
Rattus norvegicus [24]
  Activity: inactive
Rattus norvegicus [25]
  Activity: 15%
Rattus norvegicus [26]
  Activity: Active
Rattus norvegicus [27]
  Activity: Active
Rattus norvegicus [28]
  Activity: inactive
Rattus norvegicus [29]
  Activity: inactive
Rattus norvegicus [30]
  Activity: Active
Rattus norvegicus [31]
  Activity: Active
Rattus norvegicus [32]
  Activity: Active
Rattus norvegicus [33]
  Activity: inactive
Rattus norvegicus [34]
  Activity: Active
Rattus norvegicus [35]
  Activity: inactive
Rattus norvegicus [36]
  Activity: inactive
Rattus norvegicus [37]
  Activity: inactive
Rattus norvegicus [38]
  Activity: inactive
Rattus norvegicus [39]
  Activity: inactive
Rattus norvegicus [40]
  Activity: inactive
Rattus norvegicus [41]
  Activity: Active
Rattus norvegicus [42]
  Activity: inactive
Rattus norvegicus [43]
  Activity: inactive
Rattus norvegicus [44]
  Activity: inactive
Rattus norvegicus [45]
  Activity: inactive
Rattus norvegicus [46]
  Activity: inactive
Rattus norvegicus [47]
  Activity: Active
Rattus norvegicus [48]
  Activity: Active
